US20050261194A1, “Use of thymulin-like peptides for making pain-relieving medicines” (priority 2001, published 2005)

What was measured:
rats [1] = test: Systemic inflammatory hyperalgesia induced by intraperitoneal ET; PP and TF tests; format: in vivo, rat; conditions: TAP 25 μg i.p. thirty minutes before ET 50 μg i.p.
Method: In the second model, the rats receive an intraperitoneal injection of endotoxin ([…] in 100 μl of physiological saline solution).
Protocol 2(a): One group of rats received one intraperitoneal injection of ET (50 μg), while the other group was pretreated with the protein analogue of thymuline (TAP) (25 μg, intraperitoneal injection), 30 minutes before the injection of ET.
The TF and PP tests were then done at 1 hour, 3 hours and 6 hours after the injection of ET.

rats [2] = test: CCI (chronic constriction injury) mononeuropathy: allodynia and hyperpathy; format: in vivo, rat
Method: Adult male Sprague-Dawley rats (250-300 g) were used for these trials. Over the period of the experiments, the rats were placed under standard conditions (4 to 5 individuals to a cage, 12 hour day/night cycle, 22.2° C.), with free access to water and food. The necessary surgical procedures were done under deep anesthesia using ketamine (Ketalar®, 40-50 mg/kg, intraperitoneal injection), preceded by pre-anesthesia using chlorpromazine (8 mg/kg, idem) and atropine (0.05 mg/kg, idem).
Mononeuropathy was induced in different groups of rats (n=6 rats in each group) according to the CCI (chronic constriction injury, chronic nerve constriction, Bennet G. J. et Xie Y. K., 1988, A peripheral mononeuropathy in rat that produces disorders of pain sensation like those seen in man, Pain, 33:87-107) or according to the SNI (spared nerve injury, spared nerve of the enervated paw, Decosterd I. et Woolf C. J., 2000, Spared nerve injury: an animal model of persistent peripheral neuropathic pain, Pain, 87:149-158). The sciatic nerve was exposed after dissection of the posterior hip and by incision through the skin and the fatty layer covering the popliteal fossa. For the CCI model, four loose ligatures (chromed catgut 4.0) were placed on the proximal side of the sciatic trifurcation. For the SNI model, the external popliteal sciatic nerve and the internal popliteal sciatic nerve were isolated, tightly ligatured and sectioned, while the sural nerve innervating the lateral aspect of the paw was left intact.
The rats were placed in individual compartments of one cage, whose floor was made of a metal grating allowing access to the heel pad and to the lateral aspect of the paw with wires.
For mechanical allodynia, the plantar surface of the hind paws (lateral surface for the SNI model and the median plantar surface for the CCI) was contacted with the von Frey wires (VFF 4.31 and 5.07, Stoelting Co., USA), which corresponded to the forces of 2.041 and 11.749 g (18.5 and 106.7 mN), respectively. […] The number of paw retractions induced by 10 trials was established for each rat on each hind paw prior to (baseline) and after induction of the mono-neuropathy. In normal rats, the low caliber wires (VFF 4.31) and higher caliber (VFF 5.07) induced an average 1.3±0.2 and 2.7±0.3 responses/10 trials, respectively.
The method described by Choi et al. (1994, Behavioral signs of ongoing pain and cold allodynia in a rat model of neuropathic pain, Pain, 59:369-376) was used for evaluation of cold allodynia. It consists of applying several drops (approximately 50 μl) of an acetone solution on the paw and measuring the duration of the retraction reaction. One half second and 20 seconds are the values chosen arbitrarily for the minimum and maximum threshold, respectively.
The duration (D) of retraction of the paw (RP) in response to a nociceptive ray of radiant heat oriented towards the plantar surface was established in the normal rat. […] the DRP after induction of the mononeuropathy was considered to be an indication of hyperalgesia. Each rat underwent two RP tests per session a minimum of every five minutes.
The neuropathic manifestations were at maximum seven to ten days after induction of the neuropathy. The effects of the injections of TAP were tested during this period, which corresponds to the peak of the neuropathy.
During the experiments done on rats suffering from neuropathy, allodynia and hyperpathy were evaluated in each group of animals with reference to the baseline condition established prior to induction of mononeuropathy. For example, the average of the number of paw withdrawal induced by each VFF was calculated for all of the rats of each group and the variation of this mean has been determined after treatment with TAP at different time periods after the injection. The same method has been followed for allodynia in the code and the hypertrophy relative to heat.

Glu-Ala-lys-Ser-Gln-Gly-Gly-Ser-Asp (SQGGSD; N-terminal Glu-Ala-Lys; printed: Ser-Gln-Gly-Gly-Ser-Asp) [TAP]
effect on mechanical hyperalgesia (PP test) (rats [1]; FIG. 4A): abolished | effect on thermal hyperalgesia (TF test) (rats [1]; FIG. 4B): abolished | reversibility of the effects, time after injection (rats [2]; CCI, TAP 5 μg i.p.): three to four hours | time of maximum effect on cold allodynia after injection (rats [2]; CCI, TAP 5 μg i.p.): 75 min | time of maximum effect on hyperpathy after injection (rats [2]; CCI, TAP 5 μg i.p.): 75 min | time of maximum effect on mechanical allodynia after injection (rats [2]; CCI, TAP 5 μg i.p.): two hours | dose giving maximal attenuation of the neuropathic manifestations (rats [2]; CCI, doses 1, 5 and 25 μg compared, FIG. 7): 5 μg/rat | effect on neuropathic manifestations, CCI model (rats [2]; TAP 5 μg in 100 μl i.p., FIG. 5): significant attenuation
